Measured values: patent publication US9045470B2, “Compounds and compositions as TLR activity modulators” (IRM LLC, priority 2009, dated 2015)
pEC50: −log10 of the molar value.

These molecules were tested against T1, human TLR7 (Homo sapiens, UniProt Q9NYK1) (assay: Reporter gene assay: HEK293 cells stably transfected with human TLR7 and NF-kB-driven luciferase reporter). Details: not given.
T1 construct: expressed in transfected cells; host or cells: HEK 293 (human embryonic kidney 293), stably transfected; co-transfected pNifty-Luciferase reporter
T1 sequence (Q9NYK1 27-1049): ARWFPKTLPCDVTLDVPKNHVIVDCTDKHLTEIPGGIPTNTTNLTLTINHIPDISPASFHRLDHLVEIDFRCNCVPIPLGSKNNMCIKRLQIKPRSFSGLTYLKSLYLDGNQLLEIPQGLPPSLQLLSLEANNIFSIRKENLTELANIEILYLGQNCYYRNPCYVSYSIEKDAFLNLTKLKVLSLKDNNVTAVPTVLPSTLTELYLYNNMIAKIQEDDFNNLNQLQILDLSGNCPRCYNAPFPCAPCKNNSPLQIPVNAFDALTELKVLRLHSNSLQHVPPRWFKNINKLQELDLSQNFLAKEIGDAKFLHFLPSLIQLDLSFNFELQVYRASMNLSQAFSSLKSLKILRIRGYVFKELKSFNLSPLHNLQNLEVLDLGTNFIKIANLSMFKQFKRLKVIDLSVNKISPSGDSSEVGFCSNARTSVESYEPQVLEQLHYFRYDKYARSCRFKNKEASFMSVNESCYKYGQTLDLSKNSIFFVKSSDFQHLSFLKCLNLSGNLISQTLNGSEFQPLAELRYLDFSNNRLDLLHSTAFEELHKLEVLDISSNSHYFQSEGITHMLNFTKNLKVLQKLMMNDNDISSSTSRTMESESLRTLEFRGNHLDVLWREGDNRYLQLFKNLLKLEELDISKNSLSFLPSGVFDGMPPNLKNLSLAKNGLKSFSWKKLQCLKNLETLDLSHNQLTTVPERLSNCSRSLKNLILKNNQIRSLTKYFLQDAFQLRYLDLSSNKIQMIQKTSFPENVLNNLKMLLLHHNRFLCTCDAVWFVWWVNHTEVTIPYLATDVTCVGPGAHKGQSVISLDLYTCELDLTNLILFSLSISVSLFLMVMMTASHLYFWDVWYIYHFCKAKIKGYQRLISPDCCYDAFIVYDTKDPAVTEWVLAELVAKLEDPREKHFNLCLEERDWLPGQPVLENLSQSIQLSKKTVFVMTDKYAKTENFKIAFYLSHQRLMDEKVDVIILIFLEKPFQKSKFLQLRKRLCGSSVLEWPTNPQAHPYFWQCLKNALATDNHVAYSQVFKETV
Format: cell-based
Method: Human embryonic kidney 293 (HEK 293) cells were stably transfected with human TLR7 and an NF-kB-driven luciferase reporter vector (pNifty-Luciferase). As a control assay, normal Hek293 transfected with pNifty-Luc were used. Cells were cultured in DMEM supplemented with 2 mM L-glutamine, 10% heart inactivated FBS, 1% penicillin and streptomycin, 2 μg/ml puromycin (InvivoGen #ant-pr-5) and 5 μg/ml of blasticidin (Invitrogen #46-1120). Bright-Glo™ Luciferase assay buffer and substrate were supplied by Promega #E263B and #E264B (assay substrate and buffer respectively). 384 well clear-bottom plates were supplied by Greiner bio-one (#789163-G) and were custom bar-coded plates.
Cells were plated at 25,000 cells/well in 384-well plates in a final volume of 50 μl of media. Cells were allowed to adhere to the plates after overnight (18 hours) culture at 37° C. and 5% CO2. Serially diluted experimental and positive control compounds were then dispensed to each well and incubated for 7 hours at 37° C. and 5% CO2. Cells stimulated with DMSO alone also serve as negative controls. After the incubation, 30 μl of the pre-mix assay buffer and substrate buffer were added to each well according to manufacturer's instructions.
The EC50 value in those experiments is given as that concentration of the test compound in question that provoke a response halfway between the baseline and maximum responses. […] Such EC50 values are obtained relative to the activity of resiquimod set to 100%.

Compound	pEC50
COc1ccc(CCc2cnc3c(N)nc4cc(C(=O)P(=O)(O)O)ccc4c3c2)c(C)c1 [Compound 14, 5-amino-2-(4-methoxy-2-methylphenethyl)benzo[f][1,7]naphthyridine-8-carbonylphosphonic acid]	6.05
Cc1ccc2c(c1)nc(N)c1ncc(CCc3ccc(OCc4ccc(CC(F)(F)P(=O)(O)O)cc4)cc3C)cc12 [Compound 8, 2-(4-((4-(2-(5-amino-8-methylbenzo[f][1,7]naphthyridin-2-yl)ethyl)-3-methylphenoxy)methyl)phenyl)-1,1-difluoroethylphosphonic acid]	6.43
Cc1ccc2c(c1)nc(N)c1ncc(CCc3ccc(OCCCCCP(=O)(O)O)cc3C)cc12 [Compound 27, 5-(4-(2-(5-amino-8-methylbenzo[f][1,7]naphthyridin-2-yl)ethyl)-3-methylphenoxy)pentylphosphonic acid]	6.04
Cc1ccc2c(c1)nc(N)c1ncc(CCc3ccc(OCP(=O)(O)O)cc3C)cc12 [Compound 3, (4-(2-(5-amino-8-methylbenzo[f][1,7]naphthyridin-2-yl)ethyl)-3-methylphenoxy)methylphosphonic acid]	5.50
COc1ccc(CCc2cnc3c(N)nc4cc(CCP(=O)(O)O)ccc4c3c2)c(C)c1 [Compound 11, 2-(5-amino-2-(4-methoxy-2-methylphenethyl)benzo[f][1,7]naphthyridin-8-yl)ethylphosphonic acid]	7.05
COc1ccc(CCc2cnc3c(N)nc4cc(C(=O)C(F)(F)P(=O)(O)O)ccc4c3c2)c(C)c1 [Compound 9, 2-(5-amino-2-(4-methoxy-2-methylphenethyl)benzo[f][1,7]naphthyridin-8-yl)-1,1-difluoro-2-oxoethylphosphonic acid]	6.41
Cc1cc(OCCCP(=O)(O)O)ccc1CCc1cnc2c(N)nc3cc(CCC(=O)O)ccc3c2c1 [Compound 15, 3-(5-amino-2-(2-methyl-4-(3-phosphonopropoxy)phenethyl)benzo[f][1,7]naphthyridin-8-yl)propanoic acid]	7.19
Cc1ccc2c(c1)nc(N)c1ncc(CCc3ccc(OCCP(=O)(O)O)cc3C)cc12 [Compound 22, 2-(4-(2-(5-amino-8-methylbenzo[f][1,7]naphthyridin-2-yl)ethyl)-3-methylphenoxy)ethylphosphonic acid]	5.94
COc1ccc(CCc2cnc3c(N)nc4cc(/C=C/P(=O)(O)O)ccc4c3c2)c(C)c1 [Compound 10, (E)-2-(5-Amino-2-(4-methoxy-2-methylphenethyl)benzo[f][1,7]naphthyridin-8-yl)vinylphosphonic acid]	6.82
Cc1ccc2c(c1)nc(N)c1ncc(CCc3ccc(OCCOCCOCCP(=O)(O)O)cc3C)cc12 [Compound 26, 2-(2-(2-(4-(2-(5-amino-8-methylbenzo[f][1,7]naphthyridin-2-yl)ethyl)-3-methylphenoxy)ethoxy)ethoxy)ethylphosphonic acid]	5.59
Cc1cc(OCCOCCOCCOCCP(=O)(O)O)ccc1CCc1cnc2c(N)nc3cc(CCC(=O)O)ccc3c2c1 [Compound 18, 3-(5-amino-2-(2-methyl-4-(2-(2-(2-(2-phosphonoethoxy)ethoxy)ethoxy)ethoxy)phenethyl)benzo[f][1,7]naphthyridin-8-yl)propanoic acid]	6.02
Cc1ccc2c(c1)nc(N)c1ncc(CCc3ccc(OCc4cccc(P(=O)(O)O)c4)cc3C)cc12 [Compound 13, 3-((4-(2-(5-amino-8-methylbenzo[f][1,7]naphthyridin-2-yl)ethyl)-3-methylphenoxy)methyl)phenylphosphonic acid]	5.98

Same assay, conditions: HEK293 stably transfected with human TLR7 and NF-kB luciferase reporter; 7 hours incubation; relative to resiquimod set to 100%; read-out: Human TLR7 EC50 (nM) HEK293

Compound	EC50 [nM]
Cc1cc(OCCOCCP(=O)(O)O)ccc1CCc1cnc2c(N)nc3cc(CCC(=O)O)ccc3c2c1 [Compound 21, 3-(5-amino-2-(2-methyl-4-(2-(2-phosphonoethoxy)ethoxy)phenethyl)benzo[f][1,7]naphthyridin-8-yl)propanoic acid]	204
Cc1ccc2c(c1)nc(N)c1ncc(CCc3ccc(OP(=O)(O)O)cc3C)cc12 [Compound 2, 4-(2-(5-amino-8-methylbenzo[f][1,7]naphthyridin-2-yl)ethyl)-3-methylphenyl dihydrogen phosphate]	315
